Measurements taken from ChEMBL document CHEMBL6153074, “Discovery of novel dual tubulin and MMPs inhibitors for the treatment of lung cancer and overcoming drug resistance” (Eur J Med Chem, 2025).
Active and inactive are the calls of the source. The rule behind the calls is not given here.

Experiments:
NCI-H460 = experiment: Antiproliferative activity against human NCI-H460 cells by CCK8 assay
A549 [1] = experiment: cells; settings: Homo sapiens
Description: Antiproliferative activity against human A549 cells by CCK8 assay

MCF7 = experiment: Antiproliferative activity against human MCF7 cells by CCK8 assay
MDA-MB-231 = experiment: Antiproliferative activity against human MDA-MB-231 cells by CCK8 assay
[2] = Selectivity index, ratio of IC50 for antiproliferative activity against human MCF-10A cells to IC50 for antiproliferative activity against human MCF7 cells; format: toxicity, cell-based; settings: MCF-10A cells and MCF7 cells, read-out: Ratio IC50
[3] = Antiproliferative activity against human MCF-10A cells by CCK8 assay; format: toxicity, cell-based
[4] = Antiproliferative activity against human L02 cells by CCK8 assay; format: toxicity, cell-based
[5] = Selectivity index, ratio of IC50 for antiproliferative activity against human L02 cells to IC50 for antiproliferative activity against human A549 cells; format: toxicity, cell-based; settings: L02 cells and A549 cells, read-out: Ratio IC50
A549 [6] = experiment: Induction of apoptosis in human A549 cells assessed as necrotic cells at 0.5 uM incubated for 24 hrs by Annexin V-FITC/PI staining based flow cytometry (reference value: 0.13 %); format: functional
Tubulin (Homo sapiens) [7] = target: T1, Tubulin (Homo sapiens) (UniProt P68371+Q9H4B7+P0DPH7+P68366+Q13509+Q71U36+P04350+Q3ZCM7+P07437+P68363+Q9BQE3+Q6PEY2+Q13885+Q9BVA1+Q9BUF5); experiment: Disruption of microtubule network in human A549 cells assessed as cell disorganisation at 5 uM incubated for 24 hrs by immunofluorescence based analysis
A549 [8] = experiment: Induction of mitochondrial membrane potential loss in human A549 cells at 0.5 uM incubated for 24 hrs by JC-1 dye based analysis (reference value: 3.14 %); format: functional
A549 [9] = experiment: Induction of apoptosis in human A549 cells assessed as viable cells at 0.5 uM incubated for 24 hrs by Annexin V-FITC/PI staining based flow cytometry (reference value: 95.82 %); format: functional; settings: read-out: Activity
A549 [10] = experiment: Induction of cell cycle arrest in human A549 cells assessed as accumulation at G2 phase at 0.5 uM incubated for 24 hrs by PI staining based flow cytometry (reference value: 3.37 %); format: functional
A549 [11] = experiment: Induction of cell cycle arrest in human A549 cells assessed as accumulation at S phase at 0.5 uM incubated for 24 hrs by PI staining based flow cytometry (reference value: 37.95 %); format: functional
Tubulin (Homo sapiens) [12] = target: T1, Tubulin (Homo sapiens); experiment: Disruption of microtubule network in human A549 cells assessed as contraction towards cell border at 5 uM incubated for 24 hrs by immunofluorescence based analysis
A549 [13] = experiment: Induction of apoptosis in human A549 cells assessed as late apoptotic cells at 0.5 uM incubated for 24 hrs by Annexin V-FITC/PI staining based flow cytometry (reference value: 1.01 %); format: functional
A549 [14] = experiment: Antitumor activity against human A549 cells xenografted in BALB/c mouse at 20 mg/kg, ip for 3 weeks administered on every 2 days relative to control; format: functional; settings: A549, 504 h, read-out: TGI
A549 [15] = experiment: Induction of apoptosis in human A549 cells assessed as early apoptotic cells at 0.5 uM incubated for 24 hrs by Annexin V-FITC/PI staining based flow cytometry (reference value: 3.04 %); format: functional
A549 [16] = experiment: Induction of cell cycle arrest in human A549 cells assessed as accumulation at G1 phase at 0.5 uM incubated for 24 hrs by PI staining based flow cytometry (reference value: 58.67 %); format: functional
A549 [17] = experiment: Induction of intracellular ROS accumulation in human A549 cells at 0.5 uM incubated for 24 hrs by DCFH-DA dye based flow cytometry (reference value: 4.96 %); format: functional
A549 [18] = experiment: Anti-migration activity in human A549 cells assessed as migration rate at 0.5 uM incubated for 24 hrs by wound healing assay (reference value: 73.94 %); format: functional
[19] = target: 72 kDa type IV collagenase (Homo sapiens, UniProt P08253); experiment: Inhibition of MMP-2 (unknown origin) using fluorogenic-McaPro-Leu-Gly-Leu-Dpa-Ala-Arg-NH2 as substrate
Stromelysin-1 = Stromelysin-1 (Homo sapiens, UniProt P08254); experiment: Inhibition of MMP-3 (unknown origin) using fluorogenic-McaPro-Leu-Gly-Leu-Dpa-Ala-Arg-NH2 as substrate
[20] = target: Matrix metalloproteinase-9 (Homo sapiens, UniProt P14780); experiment: Inhibition of MMP-9 (unknown origin) using fluorogenic-McaPro-Leu-Gly-Leu-Dpa-Ala-Arg-NH2 as substrate
Sequence of Matrix metalloproteinase-9 (P14780 whole entry): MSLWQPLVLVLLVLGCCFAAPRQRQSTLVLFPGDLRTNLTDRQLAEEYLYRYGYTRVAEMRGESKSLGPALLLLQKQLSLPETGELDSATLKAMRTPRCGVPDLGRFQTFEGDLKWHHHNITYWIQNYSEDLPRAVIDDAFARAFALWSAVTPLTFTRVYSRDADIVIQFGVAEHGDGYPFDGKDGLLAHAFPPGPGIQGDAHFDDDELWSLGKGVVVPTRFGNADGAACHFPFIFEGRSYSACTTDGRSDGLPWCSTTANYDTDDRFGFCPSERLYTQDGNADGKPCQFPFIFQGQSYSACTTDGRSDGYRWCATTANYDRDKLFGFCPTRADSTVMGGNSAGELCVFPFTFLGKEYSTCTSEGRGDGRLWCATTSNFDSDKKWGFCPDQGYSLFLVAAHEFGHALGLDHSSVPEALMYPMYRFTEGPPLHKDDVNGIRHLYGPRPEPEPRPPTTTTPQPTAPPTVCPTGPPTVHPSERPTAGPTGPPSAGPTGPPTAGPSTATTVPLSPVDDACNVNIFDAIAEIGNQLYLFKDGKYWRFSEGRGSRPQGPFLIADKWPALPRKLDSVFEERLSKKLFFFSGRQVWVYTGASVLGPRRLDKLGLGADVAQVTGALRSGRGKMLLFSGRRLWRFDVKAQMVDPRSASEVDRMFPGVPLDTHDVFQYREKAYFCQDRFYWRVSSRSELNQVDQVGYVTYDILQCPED

Sequence of Stromelysin-1 (P08254 whole entry): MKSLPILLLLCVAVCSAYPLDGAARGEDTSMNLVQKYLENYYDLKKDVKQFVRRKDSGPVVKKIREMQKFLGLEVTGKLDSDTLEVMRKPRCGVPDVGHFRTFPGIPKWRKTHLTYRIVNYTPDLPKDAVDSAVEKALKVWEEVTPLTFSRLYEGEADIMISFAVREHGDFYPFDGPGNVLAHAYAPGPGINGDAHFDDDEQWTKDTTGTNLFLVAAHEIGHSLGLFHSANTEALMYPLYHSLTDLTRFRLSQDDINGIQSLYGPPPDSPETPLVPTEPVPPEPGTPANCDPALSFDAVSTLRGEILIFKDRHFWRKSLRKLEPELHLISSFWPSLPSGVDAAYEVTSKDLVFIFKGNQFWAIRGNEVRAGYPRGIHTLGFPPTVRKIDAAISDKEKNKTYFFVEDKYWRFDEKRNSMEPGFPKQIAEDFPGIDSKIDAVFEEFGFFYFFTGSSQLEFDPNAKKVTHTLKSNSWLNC
Sequence of 72 kDa type IV collagenase (P08253 whole entry): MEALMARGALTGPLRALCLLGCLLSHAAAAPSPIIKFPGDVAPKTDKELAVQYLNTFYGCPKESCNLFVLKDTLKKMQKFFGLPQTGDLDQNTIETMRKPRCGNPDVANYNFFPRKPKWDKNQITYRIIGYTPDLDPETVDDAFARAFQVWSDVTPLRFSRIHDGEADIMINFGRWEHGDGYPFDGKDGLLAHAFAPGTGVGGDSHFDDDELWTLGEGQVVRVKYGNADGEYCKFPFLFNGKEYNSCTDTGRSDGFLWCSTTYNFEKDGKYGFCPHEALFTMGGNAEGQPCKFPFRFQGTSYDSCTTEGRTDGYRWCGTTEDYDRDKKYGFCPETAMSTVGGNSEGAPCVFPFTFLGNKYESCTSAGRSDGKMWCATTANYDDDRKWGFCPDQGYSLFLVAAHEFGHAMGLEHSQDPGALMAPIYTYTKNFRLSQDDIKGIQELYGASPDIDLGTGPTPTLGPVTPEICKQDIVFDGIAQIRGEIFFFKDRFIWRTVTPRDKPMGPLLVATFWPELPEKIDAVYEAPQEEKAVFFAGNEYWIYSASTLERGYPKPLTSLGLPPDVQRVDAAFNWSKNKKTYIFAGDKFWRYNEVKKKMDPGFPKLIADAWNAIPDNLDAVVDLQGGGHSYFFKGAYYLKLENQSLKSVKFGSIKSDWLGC

Structure (SMILES) | IC50 (NCI-H460) [nM] | IC50 (A549 [1]) [nM] | IC50 (MCF7) [nM] | IC50 (MDA-MB-231) [nM] | also measured
CCOP(=O)(OCC)C(Nc1ccc(CC(=O)Oc2cc(/C=C/C(=O)c3cc(OC)c(OC)c(OC)c3)ccc2OC)cc1)c1ccc(OC)cc1 (centres undefined) | 658 | 545 | 752 | 834 | 
CCOP(=O)(OCC)C(Nc1ccc(CC(=O)Oc2cc(/C=C/C(=O)c3cc(OC)c(OC)c(OC)c3)ccc2OC)cc1)c1cc(OC)c(OC)c(OC)c1 (centres undefined) | 840 | 712 | 915 | 952 | 
CCOP(=O)(OCC)C(Nc1ccc(CC(=O)Oc2cc(/C=C/C(=O)c3cc(OC)c(OC)c(OC)c3)ccc2OC)cc1)c1cccc(Cl)c1 (centres undefined) | 845 | 649 | 818 | 901 | 
COc1ccc(/C=C/C(=O)c2ccc(OC)c3c2OC(C)(C)C=C3)cc1O | 1070 | 1220 | 1150 | 1040 | 
CC(=O)O[C@H]1C(=O)[C@@]2(C)[C@H]([C@H](OC(=O)c3ccccc3)[C@]3(O)C[C@H](OC(=O)[C@H](O)[C@@H](NC(=O)c4ccccc4)c4ccccc4)C(C)=C1C3(C)C)[C@]1(OC(C)=O)CO[C@@H]1C[C@@H]2O [PACLITAXEL] | 155 | 109 | 122 | 208 | selectivity ratio [2]: 0.93; IC50 [3]: 114 nM; IC50 [4]: 95 nM; selectivity ratio [5]: 0.87
CCOP(=O)(OCC)C(Nc1ccc(CC(=O)Oc2cc(/C=C/C(=O)c3ccc(OC)c4c3OC(C)(C)C=C4)ccc2OC)cc1)c1cccc([N+](=O)[O-])c1 (centres undefined) | 299 | 206 | 332 | 454 | 
CCOP(=O)(OCC)C(Nc1ccc(CC(=O)Oc2cc(/C=C/C(=O)c3cc(OC)c(OC)c(OC)c3)ccc2OC)cc1)c1cccc(C)c1 (centres undefined) | 385 | 309 | 414 | 574 | 
COc1ccc(/C=C/C(=O)c2ccc(OC)c3c2OC(C)(C)C=C3)cc1 [MILLEPACHINE] | 7910 | 5940 | 5620 | 4290 | 
COc1ccc(/C=C/C(=O)c2cc(OC)c(OC)c(OC)c2)cc1O | 538 | 456 | 722 | 808 | Activity (A549 [6]): 0.84%; Activity (Tubulin (Homo sapiens) [7]): Active; selectivity ratio [2]: 1.34; Activity (A549 [8]): 40.88%; viability at 0.5 µM (A549 [9]): 69.5%; Activity (A549 [10]): 69.1%; Activity (A549 [11]): 14.34%; Activity (Tubulin (Homo sapiens) [12]): Active; Activity (A549 [13]): 5.23%; IC50 [3]: 967 nM; inhibition in vivo at 20 mg/kg (A549 [14]): 64.7%; Activity (A549 [15]): 24.49%; Activity (A549 [16]): 16.56%; Activity (A549 [17]): 54.64%; Activity (A549 [18]): 45.16%; IC50 [4]: 1090 nM; selectivity ratio [5]: 2.4
CCOP(=O)(OCC)C(Nc1ccc(CC(=O)Oc2cc(/C=C/C(=O)c3ccc(OC)c4c3OC(C)(C)C=C4)ccc2OC)cc1)c1cc(OC)c(OC)c(OC)c1 (centres undefined) | 837 | 769 | 915 | 989 | 
CCOP(=O)(OCC)C(Nc1ccc(CC(=O)Oc2cc(/C=C/C(=O)c3cc(OC)c(OC)c(OC)c3)ccc2OC)cc1)c1ccc(C)cc1 (centres undefined) | 452 | 399 | 540 | 668 | 
CCOP(=O)(OCC)C(Nc1ccc(CC(=O)Oc2cc(/C=C/C(=O)c3ccc(OC)c4c3OC(C)(C)C=C4)ccc2OC)cc1)c1ccc(OC)c(OC)c1 (centres undefined) | 731 | 608 | 822 | 936 | 
CCOP(=O)(OCC)C(Nc1ccc(CC(=O)Oc2cc(/C=C/C(=O)c3cc(OC)c(OC)c(OC)c3)ccc2OC)cc1)c1cccc(F)c1 (centres undefined) | 267 | 253 | 357 | 492 | 
CCOP(=O)(OCC)C(Nc1ccc(CC(=O)Oc2cc(/C=C/C(=O)c3cc(OC)c(OC)c(OC)c3)ccc2OC)cc1)c1cccc(OC)c1 (centres undefined) | 465 | 379 | 667 | 721 | 
CCOP(=O)(OCC)C(Nc1ccc(CC(=O)Oc2cc(/C=C/C(=O)c3cc(OC)c(OC)c(OC)c3)ccc2OC)cc1)c1ccccc1 (centres undefined) | 704 | 632 | 828 | 940 | 
CCOP(=O)(OCC)C(Nc1ccc(CC(=O)Oc2cc(/C=C/C(=O)c3cc(OC)c(OC)c(OC)c3)ccc2OC)cc1)c1ccc(OC)c(OC)c1 (centres undefined) | 739 | 683 | 806 | 893 | 
CCOP(=O)(OCC)C(Nc1ccc(CC(=O)Oc2cc(/C=C/C(=O)c3cc(OC)c(OC)c(OC)c3)ccc2OC)cc1)c1ccc(Br)cc1 (centres undefined) | 762 | 609 | 872 | 939 | 
COc1cccc2c1C(=O)c1c(O)c3c(c(O)c1C2=O)C[C@@](O)(C(=O)CO)C[C@@H]3O[C@H]1C[C@H](N)[C@H](O)[C@H](C)O1 [DOXORUBICIN] |  |  |  |  | IC50 [3]: 973 nM; IC50 [4]: 1320 nM
CCOP(=O)(OCC)C(Nc1ccc(CC(=O)Oc2cc(/C=C/C(=O)c3cc(OC)c(OC)c(OC)c3)ccc2OC)cc1)c1ccc([N+](=O)[O-])cc1 (centres undefined) | 423 | 328 | 507 | 570 | 
Cc1ccc2nc(-c3cccc(NC(=O)CCc4ccccc4)c3)[nH]c2c1 |  |  |  |  | IC50 [19]: 36400 nM; IC50 (Stromelysin-1): 46300 nM; IC50 [20]: 28400 nM

Now from value to molecule, other results behind:

IC50 (NCI-H460) [nM] | IC50 (A549 [1]) [nM] | IC50 (MCF7) [nM] | IC50 (MDA-MB-231) [nM] | Structure (SMILES) | also measured
469 | 368 | 554 | 643 | CCOP(=O)(OCC)C(Nc1ccc(CC(=O)Oc2cc(/C=C/C(=O)c3ccc(OC)c4c3OC(C)(C)C=C4)ccc2OC)cc1)c1ccc([N+](=O)[O-])cc1 (centres undefined) | 
654 | 560 | 801 | 934 | CCOP(=O)(OCC)C(Nc1ccc(CC(=O)Oc2cc(/C=C/C(=O)c3ccc(OC)c4c3OC(C)(C)C=C4)ccc2OC)cc1)c1ccc(OC)cc1 (centres undefined) | 
758 | 709 | 808 | 978 | CCOP(=O)(OCC)C(Nc1ccc(CC(=O)Oc2cc(/C=C/C(=O)c3ccc(OC)c4c3OC(C)(C)C=C4)ccc2OC)cc1)c1ccc(Cl)cc1 (centres undefined) | 
374 | 288 | 423 | 544 | CCOP(=O)(OCC)C(Nc1ccc(CC(=O)Oc2cc(/C=C/C(=O)c3ccc(OC)c4c3OC(C)(C)C=C4)ccc2OC)cc1)c1cccc(F)c1 (centres undefined) | 
500 | 392 | 567 | 692 | CCOP(=O)(OCC)C(Nc1ccc(CC(=O)Oc2cc(/C=C/C(=O)c3ccc(OC)c4c3OC(C)(C)C=C4)ccc2OC)cc1)c1ccc(F)cc1 (centres undefined) | 
785 | 656 | 732 | 928 | CCOP(=O)(OCC)C(Nc1ccc(CC(=O)Oc2cc(/C=C/C(=O)c3ccc(OC)c4c3OC(C)(C)C=C4)ccc2OC)cc1)c1cccc(Cl)c1 (centres undefined) | 
562 | 484 | 765 | 799 | CCOP(=O)(OCC)C(Nc1ccc(CC(=O)Oc2cc(/C=C/C(=O)c3ccc(OC)c4c3OC(C)(C)C=C4)ccc2OC)cc1)c1ccc(C)cc1 (centres undefined) | 
780 | 741 | 829 | 959 | CCOP(=O)(OCC)C(Nc1ccc(CC(=O)Oc2cc(/C=C/C(=O)c3ccc(OC)c4c3OC(C)(C)C=C4)ccc2OC)cc1)c1ccc(Br)cc1 (centres undefined) | 
698 | 591 | 797 | 898 | CCOP(=O)(OCC)C(Nc1ccc(CC(=O)Oc2cc(/C=C/C(=O)c3ccc(OC)c4c3OC(C)(C)C=C4)ccc2OC)cc1)c1ccccc1 (centres undefined) | 
